“Also recorded” adds a separate entry of the source. Structures can show the parent of a compound that is named as a salt. Where two headings read alike, the source gives them in different places.
Experiments:
Format in all cases: cell-based
[1] = test system: HIV-1 LTR promoter; settings: for variability in gene expression (noise magnitude) / mean expression level: known transcriptional modulators applied to the isoclone target; for variability in gene expression (noise magnitude) / mean expression level / burst frequency: FIG. 6D; for burst frequency: activator drugs
[2] = test system: HIV-1 LTR promoter; experiment: Two-reporter system (LTR-d2GFP and LTR-mCherry) noise measurement; settings: FIG. 6E; for transcriptional burst frequency (decreasing noise in mCherry): transcriptional modifiers; for d2GFP noise / mCherry noise: known transcriptional activators
Procedure: Without being bound by theory, a destabilized reporter is required to observe transcriptional noise with shorter time scales. GFP noise magnitude (quantified by the variance over the mean fluorescence squared, CV^2) and mean fluorescence were measured by high-throughput flow cytometry 24 hours post 10 uM drug exposure. To control for extrinsic variability in gene expression due to cell volume and state a conservative gating on the population forward versus side scatter was applied (See General Methods). A second LTR driving a long-lived mCherry reporter was integrated and screened alongside the destabilized reporter drug target to control for fluctuations in global resources and post-transcriptional noise sources (FIG. 6E).
To distinguish between compounds that primarily target transcription versus post-transcriptional processes and global resources (extrinsic noise) a second reporter of the LTR promoter driving a stable mCherry gene was included in the same targeted cell population used in the drug noise screen (FIG. 6E). The stable reporter averages out and is unaffected by fluctuations due to episodic transcription. Theory predicts that the destabilized d2GFP reporter can detect transcriptional bursting noise contributions (γp>>kon,koff, where γp is the fluorescent reporter degradation rate) while the two reporters together will move their noise magnitudes to changes in non-transcriptional noise sources. Filtering out non-transcriptional noise signatures of VM hits increases the probability for synergistic reactivation of latency. Noise from the two reporters was compared using the same processing as the LTR-d2GFP. The LTR-mCherry ΔCV^2 of the 85 selected VMs primarily land along the ΔCV^2 d2GFP axis. […]. Of these 25 compounds 15 were identified as modifiers of cell cycle, ATP, inflammation, post-translational modifications, and translation.
In addition to the GFP reporter in the LTR-d2GFP cell line, an LTR driving a long half-life mCherry reporter was present in the cell line. […] To remove compounds that altered CV^2 post transcriptionally, compounds that affected the CV^2 long-lived red reporter while conserving its mean mCherry level were removed. This method continues development of the original and decade-old 2-reporter system for intrinsic versus extrinsic noise measurements in bacteria (Elowitz et al., (2002) Science 297:1183-1186).

[3] = test system: latent HIV-1 in JLat 8.6 cells
[4] = test system: latent HIV-1 in primary T-cells
Procedure: FIG. 18A schematically depicts a primary T-cell model of HIV-1 latency 48 h after reactivation with PMA or a subset of noise enhancers (% reactivation percentage is calculated relative to maximal reactivation potential). […] The horizontal line represents the mean calculated Bliss Independence Score (C. I. Bliss, Ann. Appl. Biol. 26:585-615 (1939)), a measure for strict additivity for all of the compounds. FIG. 18B schematically depicts stochastic simulations of noise suppression, which reduces noise without altering the mean expression level but limits reactivation induced by an activator. […] Details are described, e.g., in Example 10.

[5] = Pharmakon 1600 library, 10 uM, 24 hours, FIG. 10

With `Nc1ncn([C@@H]2O[C@H](CO)[C@@H](O)[C@H]2O)c(=O)n1` [AZA, 4-Amino-1-(β-D-ribofuranosyl)1,3,5-triazin-2(1H)-one] the “identified as variability enhancer (VE) in noise screen” value (“identified as variability enhancer” for short) [1, 5] was “variability enhancers”, the “variability in gene expression (noise magnitude)” value (shortened to “variability in gene expression”) [1] was “increase variability in gene expression; also recorded: variability enhancers” and the “transcriptional burst frequency (decreasing noise in mCherry)” value [2] was “increase transcriptional burst frequency”.
For `CCC/C=C/C=C/C(=O)O[C@H]1/C(=C/C(=O)OC)C[C@H]2C[C@H]([C@@H](C)O)OC(=O)C[C@H](O)C[C@@H]3C[C@H](OC(C)=O)C(C)(C)[C@](O)(C[C@@H]4C/C(=C/C(=O)OC)C[C@H](/C=C/C(C)(C)[C@]1(O)O2)O4)O3` [Bryostatin, bryostatin], the mean expression level [1] was “scored lower”, the d2GFP noise [2] was “decrease both mCherry and d2GFP noise” and the mCherry noise [2] was “decrease both mCherry and d2GFP noise”. For the same compound, the “transcriptional burst frequency (decreasing noise in mCherry)” value [2] was “increase transcriptional burst frequency”.
For `COC(=O)Nc1nc2ccc(C(=O)c3ccccc3)cc2[nH]1` [V7, mebendazole], the “identified as variability enhancer” value [1, 5] was “variability enhancers”, the “synergy in reactivation of HIV-1 latency” value [3] was “synergized” and the “synergy with PMA” value [4] was “reactivating half of the remaining cells that PMA alone did not reactivate”. The “increased activation with PMA” value ([4]; 48 h, relative to maximal reactivation potential) was about 20%.
With `Nc1ccccc1NC(=O)c1ccc(CNC(=O)OCc2cccnc2)cc1` [MS-275, 3-pyridinylmethyl [[4-[[(2-aminophenyl)amino]carbonyl]phenyl]methyl]carbamate] the “variability in gene expression” value [1] was “increase variability in gene expression; also recorded: variability enhancers”, the d2GFP noise [2] was “increase d2GFP noise” and the mCherry noise [2] was “decrease mCherry noise”. The “transcriptional burst frequency (decreasing noise in mCherry)” value [2] was “increase transcriptional burst frequency”.
With TNFα the burst frequency [1] was “increase burst frequency”, the mean expression level [1] was “increase mean expression level” and the “variability in gene expression” value [1] was “decrease variability in gene expression; also recorded: decrease noise magnitude”. For the same compound, the d2GFP noise [2] was “decrease both mCherry and d2GFP noise”, the mCherry noise [2] was “decrease both mCherry and d2GFP noise” and the “transcriptional burst frequency (decreasing noise in mCherry)” value [2] was “increase transcriptional burst frequency”.
`CCCCCCCCCCCCCC(=O)O[C@@H]1[C@@H](C)[C@@]2(O)[C@@H](C=C(CO)C[C@]3(O)C(=O)C(C)=C[C@@H]23)[C@@H]2C(C)(C)[C@]12OC(C)=O` [PMA, phorbol 12-myristate 13-acetate] was tested, and the burst frequency [1] was “increase burst frequency”, the mean expression level [1] was “increase mean expression level” and the “variability in gene expression” value [1] was “decrease variability in gene expression; also recorded: decrease noise magnitude”. For the same compound, the d2GFP noise [2] was “decrease both mCherry and d2GFP noise”, the mCherry noise [2] was “decrease both mCherry and d2GFP noise” and the “transcriptional burst frequency (decreasing noise in mCherry)” value [2] was “increase transcriptional burst frequency”.
In the case of `CCCc1nc(C)c2c(=O)[nH]c(-c3cc(S(=O)(=O)N4CCN(CC)CC4)ccc3OCC)nn12` [V91, vardenafil hydrochloride], the “identified as variability enhancer” value [1, 5] is reported as “variability enhancers” and the “synergy in reactivation of HIV-1 latency” value [3] is reported as “synergized”.
`COc1ccc(-c2ccc3cc(C(=O)O)ccc3c2)cc1C12CC3CC(CC(C3)C1)C2` [V36, adapalene] was tested, and the “identified as variability enhancer” value [1, 5] was “variability enhancers” and the “synergy in reactivation of HIV-1 latency” value [3] was “synergized”.
In the case of `CCN(CC)CCNC(=O)c1cc(Cl)c(N)cc1OC` [V53, Metoclopramide hydrochloride], the “identified as variability enhancer” value [1, 5] is reported as “variability enhancers” and the “synergy in reactivation of HIV-1 latency” value [3] is reported as “synergized”.
For `Cc1ccc(S(=O)(=O)NC(=O)NN2CCCCCC2)cc1` [V51, Tolazamide], the “identified as variability enhancer” value [1, 5] was “variability enhancers” and the “synergy in reactivation of HIV-1 latency” value [3] was “synergized”.
For `O=[N+]([O-])OCC(CO[N+](=O)[O-])O[N+](=O)[O-]` [V100, nitroglycerin], the “identified as variability enhancer” value [1, 5] was “variability enhancers” and the “synergy in reactivation of HIV-1 latency” value [3] was “synergized”.
For `Cc1cccc(C)c1N=C1NCCCS1` [V29, Xylazine hydrochloride], the “identified as variability enhancer” value [1, 5] was “variability enhancers” and the “synergy in reactivation of HIV-1 latency” value [3] was “synergized”.
`Cc1cccc(N(C)C(=S)Oc2ccc3ccccc3c2)c1` [V54, tolnaftate] was tested, and the “identified as variability enhancer” value [1, 5] was “variability enhancers” and the “synergy in reactivation of HIV-1 latency” value [3] was “synergized”.
For `C[C@]12CC[C@H]3[C@@H](CC[C@@]45O[C@@H]4C(O)=C(C#N)C[C@]35C)[C@@H]1CC[C@@H]2O` [V26, trilostane], the “identified as variability enhancer” value [1, 5] was “variability enhancers” and the “synergy in reactivation of HIV-1 latency” value [3] was “synergized”.
`Oc1ccc(O)cc1` [V76, hydroquinone] was tested, and the “identified as variability enhancer” value [1] was “variability enhancers” and the “synergy in reactivation of HIV-1 latency” value [3] was “synergized”.
For `CC(C)NCC(O)c1ccc(NS(C)(=O)=O)cc1` (centres unmarked) [V83, sotalol hydrochloride], the “identified as variability enhancer” value [1, 5] was “variability enhancers” and the “synergy in reactivation of HIV-1 latency” value [3] was “synergized”.
`C=CCC1(C(C)CCC)C(=O)N=C(S)NC1=O` (centres unmarked) [V8, thiamylal sodium] was tested, and the “identified as variability enhancer” value [1, 5] was “variability enhancers” and the “synergy in reactivation of HIV-1 latency” value [3] was “synergized”.
For `CO[C@H]1C[C@H](O[C@@H]2/C(C)=C/C[C@@H]3C[C@@H](C[C@]4(CC[C@H](C)[C@@H](C5CCCCC5)O4)O3)OC(=O)[C@@H]3C=C(C)/C(=N/O)[C@H]4OC/C(=C\C=C\[C@@H]2C)[C@]43O)O[C@@H](C)[C@@H]1O` [V77, selamectin], the “identified as variability enhancer” value [1] was “variability enhancers” and the “synergy in reactivation of HIV-1 latency” value [3] was “synergized”.
For colesevalam hydrochloride [V60], the “identified as variability enhancer” value [1, 5] was “variability enhancers” and the “synergy in reactivation of HIV-1 latency” value [3] was “synergized”.
In the case of `CC(C)(CO)[C@@H](O)C(=O)NCCC(=O)[O-].[Na+]` [V22, pantothenic acid(d) na salt], the “identified as variability enhancer” value [1] is reported as “variability enhancers” and the “synergy in reactivation of HIV-1 latency” value [3] is reported as “synergized”.
In the case of `COCCCOc1ccnc(C[S+]([O-])c2nc3ccccc3[nH]2)c1C` (centres unmarked) [V93, rabeprazole sodium], the “identified as variability enhancer” value [1, 5] is reported as “variability enhancers” and the “synergy in reactivation of HIV-1 latency” value [3] is reported as “synergized”.
`COc1ccccc1OCCNCC(O)COc1cccc2[nH]c3ccccc3c12` (centres unmarked) [V84, carvedilol] was tested, and the “identified as variability enhancer” value [1, 5] was “variability enhancers” and the “synergy in reactivation of HIV-1 latency” value [3] was “synergized”.
